{"source": "paper PMC10052652", "about": "(Molecules, 2023)", "key": {"[1]": {"assay": "DPPH radical scavenging assay", "description": "DPPH• (1-1-diphenyl 2-picryl hydrazyl) assay\nThis method is based on the spectrophotometric assay using the stable radical, DPPH•, as a reagent. First, 20 µL of each sample (4 mg/mL) was mixed with 180 µL of 0.1 mM DPPH• in methanol, in plates, after an incubation of 25 min in the dark. Absorbance was measured at 517 nm. Ascorbic acid was used as the reference compound. The radical-scavenging activities of molecules, expressed as a percentage inhibition of DPPH•, were calculated according to the following formula: Inhibition (%) = [(A control − A sample)/A control] × 100 where A is the absorbance determined at 517 nm. The absorbance of the solvent and DPPH• radical without the molecule was measured as the control."}, "[2]": {"assay": "ABTS radical cation scavenging assay", "description": "ABTS (2,2′-azinobis-3-ethylbenzothiazoline-6-sulfonate) assay\nThe radical scavenging capacity of antioxidants for the ABTS radical cation was evaluated following this method: ABTS was prepared by adding 7 mM solution of ABTS at pH 7.4 (5 mM NaH2PO4, 5 mM Na2HPO4, and 154 mM NaCl) with 2.5 mM potassium persulfate. The mixture was stored at room temperature for 16 h in the dark before use and prepared […]. Once diluted with persulfate buffer, the absorbance of the mixture yielded an absorbance value of 0.70 ± 0.05 units at 734 nm. Then, 20 µL of each tested sample was mixed with fresh ABTS solution (180 µL), then the absorbance was measured 6 min after the initial mixing. Ascorbic acid was used as a standard. The capacity of free radical scavenging was expressed as a percentage of the inhibition values. The percentage of inhibition is calculated using the same expression employed in the DPPH assay."}, "[3]": {"molecular_target": "T1, acetylcholinesterase (AChE) (Homo sapiens, UniProt P22303)", "T1 sequence (P22303 32-614, species assumed)": "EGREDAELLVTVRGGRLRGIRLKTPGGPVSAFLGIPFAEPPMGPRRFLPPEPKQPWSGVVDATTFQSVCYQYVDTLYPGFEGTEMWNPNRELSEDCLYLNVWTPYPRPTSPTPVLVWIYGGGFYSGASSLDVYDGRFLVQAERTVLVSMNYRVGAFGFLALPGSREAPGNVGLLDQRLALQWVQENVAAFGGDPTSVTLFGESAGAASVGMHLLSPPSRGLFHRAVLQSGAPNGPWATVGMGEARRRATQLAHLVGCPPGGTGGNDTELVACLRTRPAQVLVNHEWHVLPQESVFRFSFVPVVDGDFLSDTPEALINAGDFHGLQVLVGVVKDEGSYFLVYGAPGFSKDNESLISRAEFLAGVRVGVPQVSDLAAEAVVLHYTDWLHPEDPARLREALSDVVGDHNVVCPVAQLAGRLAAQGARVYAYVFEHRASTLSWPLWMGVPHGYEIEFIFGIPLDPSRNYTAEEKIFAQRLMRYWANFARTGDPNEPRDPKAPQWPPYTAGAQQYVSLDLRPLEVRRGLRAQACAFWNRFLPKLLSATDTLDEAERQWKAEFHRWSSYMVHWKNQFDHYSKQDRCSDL", "assay": "biochemical", "description": "The enzymatic activity was assessed via a modified colorimetric Ellman′s method. First, 50 µL of Tris-HCl buffer (pH 8), 25µL of a buffer solution of the sample (50 µg/mL), and 25 µL of an acetylcholinesterase (AChE) enzyme solution containing 2.8 U/mL were mixed. A reaction was then initiated via the addition of 125 µL of 3 mM […]. After incubation for 15 min at 25 °C, 25 µL of a solution of iodide acetylthiocholine15 mM was added to a 96-well microplate. […] Inhibition (%) was calculated in the following way: Inhibition (%) = [(A control − A sample)/A control] × 100, where (A sample) is the absorbance of the molecule containing the reaction and (A control) is the absorbance of the reaction control. Tests were carried out in triplicate."}, "[4]": {"molecular_target": "T2, superoxide dismutase (SOD) (Homo sapiens, UniProt P00441)", "T2 sequence (P00441 whole entry)": "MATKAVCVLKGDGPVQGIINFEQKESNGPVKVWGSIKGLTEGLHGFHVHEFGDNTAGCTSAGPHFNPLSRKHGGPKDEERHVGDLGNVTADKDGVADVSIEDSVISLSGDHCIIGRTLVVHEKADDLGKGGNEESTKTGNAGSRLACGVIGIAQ", "assay": "biochemical", "settings": "read-out: Anti SOD IC50", "description": "Pyrogallol auto-oxidation due to oxygen in the air can be inhibited by an enzyme that is naturally present in the body: superoxide dismutase (SOD). Furthermore, variations in the pyrogallol auto-oxidation rate in the presence of SOD were evaluated. Tests were carried out in triplicate. The objective was to find an inhibitor of the auto-oxidation of pyrogallol in the presence of a SOD enzyme solution. Samples were tested at a concentration of 50 µg/mL, followed by incubation for 4 min at 25 °C. […] The self-oxidation of pyrogallol was evaluated in the absence of the enzyme. For this, 30 µL of pyrogallol was added to 120 µL of tris buffer (in place of the SOD) (pH 8.5), then followed by the same steps of incubating a positive control (without the molecule); this was performed in the presence of 5% of DMSO to evaluate the percentage of SOD inhibition activity on the auto-oxidation of pyrogallol."}, "[5]": {"molecular_target": "T3, xanthine oxidase (XOD) (Homo sapiens, UniProt P47989)", "T3 sequence (P47989 whole entry, species assumed)": "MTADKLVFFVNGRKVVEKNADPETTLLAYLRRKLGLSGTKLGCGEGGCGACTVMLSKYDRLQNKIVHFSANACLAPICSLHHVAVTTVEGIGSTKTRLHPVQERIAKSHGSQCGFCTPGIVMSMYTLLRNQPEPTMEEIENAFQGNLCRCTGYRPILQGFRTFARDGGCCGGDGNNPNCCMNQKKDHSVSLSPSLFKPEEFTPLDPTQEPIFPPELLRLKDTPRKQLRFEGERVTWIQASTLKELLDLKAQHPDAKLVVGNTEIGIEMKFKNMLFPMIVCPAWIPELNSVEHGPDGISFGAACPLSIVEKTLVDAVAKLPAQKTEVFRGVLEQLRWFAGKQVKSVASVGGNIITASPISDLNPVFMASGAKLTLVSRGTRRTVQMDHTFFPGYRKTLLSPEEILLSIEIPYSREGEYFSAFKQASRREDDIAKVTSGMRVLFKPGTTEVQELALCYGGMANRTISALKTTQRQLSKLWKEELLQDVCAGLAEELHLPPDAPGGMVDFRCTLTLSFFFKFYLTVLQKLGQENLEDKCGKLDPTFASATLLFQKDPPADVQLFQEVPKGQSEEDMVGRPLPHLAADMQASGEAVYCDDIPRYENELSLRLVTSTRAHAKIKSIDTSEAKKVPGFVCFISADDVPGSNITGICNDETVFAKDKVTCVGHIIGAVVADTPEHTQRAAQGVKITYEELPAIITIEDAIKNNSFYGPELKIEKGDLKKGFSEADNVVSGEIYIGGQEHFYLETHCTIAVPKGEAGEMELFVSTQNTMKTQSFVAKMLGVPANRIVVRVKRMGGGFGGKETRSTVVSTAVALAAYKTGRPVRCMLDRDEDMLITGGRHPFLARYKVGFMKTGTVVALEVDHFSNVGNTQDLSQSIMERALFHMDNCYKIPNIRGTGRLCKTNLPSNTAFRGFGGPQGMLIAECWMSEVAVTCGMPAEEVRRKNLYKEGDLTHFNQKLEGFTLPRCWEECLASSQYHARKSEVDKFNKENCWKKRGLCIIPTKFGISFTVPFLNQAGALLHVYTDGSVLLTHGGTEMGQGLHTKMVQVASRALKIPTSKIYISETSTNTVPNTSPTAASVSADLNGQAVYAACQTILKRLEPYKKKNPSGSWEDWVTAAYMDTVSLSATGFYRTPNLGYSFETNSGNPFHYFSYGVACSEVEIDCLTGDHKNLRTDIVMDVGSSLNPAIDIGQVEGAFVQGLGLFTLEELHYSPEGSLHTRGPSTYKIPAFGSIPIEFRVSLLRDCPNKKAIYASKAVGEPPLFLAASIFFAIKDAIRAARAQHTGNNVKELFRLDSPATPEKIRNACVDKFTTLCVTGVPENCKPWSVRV", "assay": "biochemical", "settings": "read-out: Anti XOD IC50", "description": "Anti-xanthine oxidase activity was assayed spectrophotometrically under aerobic conditions. First, 50 µL (50 µg/mL) of samples were added to 60 µL of phosphate buffer (pH 7.5) and 30 µL of xanthine oxidase enzyme solution (0.01 units/mL in phosphate buffer; pH 7.5). After pre-incubation at 25 °C for 15 min, the reaction was initiated by the addition of 60 µL of xanthine substrate solution (prepared in the same buffer). The assay mixture was incubated at 25 °C for 5 min. […] The assay was performed in triplicate. […] Tests were carried out in triplicate."}, "[6]": {"test_system": "HCT116 cells", "assay": "Cytotoxic activity, MTT assay, HCT116", "format": "cell-based, human", "settings": "Homo sapiens, HCT-116, 72 h, read-out: IC50 HCT116, MTT, 72 h", "description": "(§1) The cancer cell lines used in this study were HCT116 (colorectal carcinoma), IGROV1 (ovarian cancer), OVCAR3 (ovarian cancer), and MCF7 (mammary gland/breast cancer). […] Cell lines were maintained in culture and were incubated at 37 °C in an incubator with 5% CO2 in a humidified atmosphere. All tests were established at 80% of confluence, and viability was estimated with a trypan blue exclusion assay.\n(§2) The cytotoxic activities of molecules against cancer cell lines were evaluated using an MTT assay. The MTT colorimetric assay was performed using 96-well plates. Cells were seeded in a 96-well plate, at a concentration of 10 × 10^3 cells/well for HCT116 and 12 × 10^3 cells/well for MCF7, IGROV1, and OVAR. Adherent cells were dispatched and incubated at 37 °C overnight in a 5% CO2-enriched atmosphere. […] After that, the medium was removed, and cells were treated with 50 µL of 3-(4,5-dimethylthazolk-2-yl)-2,5-diphenyl tetrazolium bromide (MTT) solution (3 mg/mL in PBS) at 37 °C for 20 to 40 min. To dissolve the […], we added 80 µL of 100% DMSO. Optical density was measured at 540 nm. All tests were established in triplicate. […]"}, "[7]": {"test_system": "MCF7 cells", "assay": "Cytotoxic activity, MTT assay, MCF7", "format": "cell-based, human", "settings": "Homo sapiens, MCF7, 72 h", "description": "Optical density was measured at 540 nm. All tests were established in triplicate."}, "[8]": {"test_system": "OVCAR-3 cells", "assay": "Cytotoxic activity, MTT assay, OVCAR-3", "format": "cell-based", "settings": "Homo sapiens, OVCAR-3, 72 h, read-out: IC50 OVCAR-3", "description": "as §1, §2"}, "[9]": {"test_system": "SKOV-3 cells", "assay": "Cytotoxic activity, MTT assay, SKOV-3", "format": "cell-based, human", "settings": "Homo sapiens, SK-OV-3, 72 h, read-out: IC50 SKOV-3, MTT, 72 h"}, "[10]": {"molecular_target": "T1, acetylcholinesterase (AChE)", "format": "biochemical", "settings": "at 100 µM"}, "[11]": {"molecular_target": "T2, superoxide dismutase (SOD)", "format": "biochemical", "settings": "at 100 µM"}, "[12]": {"molecular_target": "T3, xanthine oxidase (XOD)", "format": "biochemical", "settings": "at 100 µM"}, "[13]": {"molecular_target": "T4, α-amylase (Homo sapiens, UniProt P04746)", "T4 sequence (P04746 16-511)": "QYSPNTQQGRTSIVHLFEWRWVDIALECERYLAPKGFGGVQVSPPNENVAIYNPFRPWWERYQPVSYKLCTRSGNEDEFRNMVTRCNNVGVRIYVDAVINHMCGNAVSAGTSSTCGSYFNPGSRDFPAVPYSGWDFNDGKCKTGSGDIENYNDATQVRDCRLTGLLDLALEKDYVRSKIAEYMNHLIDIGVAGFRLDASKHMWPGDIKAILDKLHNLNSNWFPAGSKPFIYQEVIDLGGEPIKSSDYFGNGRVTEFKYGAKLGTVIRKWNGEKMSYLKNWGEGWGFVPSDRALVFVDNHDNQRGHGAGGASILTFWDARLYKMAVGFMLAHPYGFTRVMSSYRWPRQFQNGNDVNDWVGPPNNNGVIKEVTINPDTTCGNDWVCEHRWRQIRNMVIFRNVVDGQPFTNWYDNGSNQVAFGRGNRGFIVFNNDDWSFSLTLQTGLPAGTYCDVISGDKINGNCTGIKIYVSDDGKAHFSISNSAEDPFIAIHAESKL", "assay": "Anti-α-amylase activity (starch/DNS)"}}}
{"smiles": "COc1ccc(-c2cc(=O)c3c(O)cc(O[C@@H]4O[C@H](CO[C@@H]5O[C@@H](C)[C@H](O)[C@@H](O)[C@H]5O)[C@@H](O)[C@H](O)[C@H]4O)cc3o2)cc1O", "note": "[Molecule M19, 3′, 5,7-trihydroxy-4′-methoxyflavone 7-rutinoside]", "values": [{"measurement": "IC50", "setting": "[1]", "value": "> 100", "unit": "µM"}, {"measurement": "IC50", "setting": "[2]", "value": "> 50", "unit": "µM"}, {"measurement": "IC50", "setting": "[3]", "value": "> 100", "unit": "µM"}, {"measurement": "IC50", "setting": "[4]", "value": "> 50", "unit": "µM"}, {"measurement": "IC50", "setting": "[5]", "value": "> 100", "unit": "µM"}, {"measurement": "IC50", "setting": "[6]", "value": "> 50", "unit": "µM"}, {"measurement": "IC50", "setting": "[7]", "value": "> 50", "unit": "µM"}, {"measurement": "IC50", "setting": "[8]", "value": "> 50", "unit": "µM"}, {"measurement": "IC50", "setting": "[9]", "value": "40.1 ± 0.9", "unit": "µM"}, {"measurement": "Anti ACHE %", "setting": "[10]", "value": "37.7 ± 4.6", "unit": "%"}, {"measurement": "Anti SOD %", "setting": "[11]", "value": "57.8 ± 2.4", "unit": "%"}, {"measurement": "Anti XOD %", "setting": "[12]", "value": "45.3 ± 3.2", "unit": "%"}, {"measurement": "IC50", "setting": "[13]", "value": "3.7 ± 0.3", "unit": "µM"}, {"measurement": "Anti α-Amylase %", "setting": "[13]; at 100 µM", "value": "60.6 ± 4.8", "unit": "%"}]}
{"smiles": "CC1OC(Oc2c(-c3cc(O)c(O)c(O)c3)oc3cc(O)cc(O)c3c2=O)C(O)C(O)C1O", "note": "(stereo not shown) [Molecule M20, myricitrin dihydrate]", "values": [{"measurement": "IC50", "setting": "[1]", "value": "> 100", "unit": "µM"}, {"measurement": "IC50", "setting": "[2]", "value": "> 100", "unit": "µM"}, {"measurement": "ABTS Assay %", "setting": "[2]; at 100 µM", "value": "20.3 ± 3.2", "unit": "%"}, {"measurement": "IC50", "setting": "[3]", "value": "> 50", "unit": "µM"}, {"measurement": "IC50", "setting": "[4]", "value": "> 100", "unit": "µM"}, {"measurement": "IC50", "setting": "[5]", "value": "> 100", "unit": "µM"}, {"measurement": "IC50", "setting": "[6]", "value": "> 50", "unit": "µM"}, {"measurement": "IC50", "setting": "[7]", "value": "> 50", "unit": "µM"}, {"measurement": "IC50", "setting": "[8]", "value": "> 50", "unit": "µM"}, {"measurement": "IC50", "setting": "[9]", "value": "> 50", "unit": "µM"}, {"measurement": "Anti ACHE %", "setting": "[10]", "value": "51.8 ± 3.5", "unit": "%"}, {"measurement": "Anti SOD %", "setting": "[11]", "value": "42.4 ± 1.1", "unit": "%"}, {"measurement": "Anti XOD %", "setting": "[12]", "value": "30.9 ± 2.5", "unit": "%"}, {"measurement": "IC50", "setting": "[13]", "value": "> 100", "unit": "µM"}]}
